Measurements from patent publication US20240252694A1, “CONJUGATES COMPRISING COVALENT BINDERS FOR TARGETING INTRACELLULAR KRAS G12C PROTEINS” (RayzeBio, Inc., priority 2021, published 2024).

Assays:
[1] = target: T1, KRAS (G12C) (Homo sapiens, UniProt P01116, G12C); test: KRAS G12C Nucleotide Exchange Assay (fixed GTP concentration); assay type: biochemical
T1 construct: purchased BPS Bioscience 79859
Procedure: A KRAS (G12C) Nucleotide Exchange Assay kit was used to evaluate compound antagonistic binding. The assay kit (BPS Bioscience. Catalog #79859) utilizes KRAS (G12C) labeled with BODIPY-GDP to determine if compounds can affect the nucleotide exchange (GDP to GTP) in KRAS signaling, Compounds were typically characterized using both protocols: fixed GTP concentrations and fixed inhibitor concentrations.
All reagents were prepared following manufacturer's protocol. 5 μL BODIPY-GDP and 10 μL of KRAS buffer were added to each well. A 3-fold serial dilution of compound in 5% DMSO was prepared. Typically, compounds were tested in the range of 0 μM to 50 μM, but the range could be modified depending on the characterization needs. 5 μL of diluted compound was added to the wells and the plate was centrifuged briefly to ensure all components were mixed before incubation at ambient temperature. After incubation for 2 hours, 10 μM GTP and 25 mM EDTA were mixed at a 1:1 ratio and 5 μL was added to the wells. The plate was then incubated for 1 hour at ambient temperature. After incubation, fluorescence was measured at […].
Data was analyzed by plotting fluorescence vs GTP concentration for control wells and compound wells.

[2] = tested on: human ERK1 dually phosphorylated at T202/Y204 and ERK2; test: Phosphorylated ERK1/ERK2 ELISA; assay type: cell-based; conditions: phosphorylated ERK in cell lysates after treatment with compounds; sandwich ELISA; cell line not stated
Procedure: An ERK phosphorylation ELISA kit was used to characterize compounds for KRAS-based cell activity. The sandwich ELISA (RnD Systems. Catalog #DYC1018B) measures human ERK1 that is dually phosphorylated at T202/Y204 and ERK2. Cell lysates from cells before and after treatment with compounds were prepared using kit manufacturer protocols.
All reagents were prepared following the kit's protocol. The wells of a 96-well microtiter plate were coated with 100 μL of 8.0 μg/mL of capture antibody in PBS. The plate was sealed and left to incubate overnight at ambient temperature. After incubation, the wells were washed with 400 μL of Wash Buffer for a total of 3 washes. Wells were then blocked by adding 300 μL of Block Buffer to each well and incubated at ambient temperature for 1-2 hours. After removal of the Block Buffer by aspirating and washing, 100 μL of standards and samples were added to the plate in duplicates and incubated for 2 hours at ambient temperature. The aspiration and wash steps were repeated to remove unbound standard and samples and 100 μL of 400 ng/mL detection antibody was applied to each well. After 2 hours at ambient temperature, detection antibody was removed by washing and 100 μL of Streptavidin-HRP was added to each well. Incubation of Streptavidin-HRP was at ambient temperature for 20 minutes, after which Streptavidin-HRP was removed by washing, 100 μL of Substrate Solution was added to each well and incubated for 20 minutes before 50 μL of Stop Solution was added to each well.
The optical density of each well was immediately analyzed at 450 nm with a wavelength correction at 540 nm. The standards were plotted by averaging the optical density for each replicate and fitted with a four-parameter logistic curve fit. Concentrations of phosphorylated ERK in cell lysate samples were determined by extrapolation from the standard curve and then adjusted for any dilution factors.

T1 sequence (P01116 1-188 isoform P01116-2 G12C): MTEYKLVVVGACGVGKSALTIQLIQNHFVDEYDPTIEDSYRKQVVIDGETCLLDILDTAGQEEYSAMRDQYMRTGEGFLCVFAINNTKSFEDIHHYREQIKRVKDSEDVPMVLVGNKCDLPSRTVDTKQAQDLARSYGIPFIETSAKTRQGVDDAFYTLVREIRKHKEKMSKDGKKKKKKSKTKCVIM

## C=CC(=O)N1CCN(c2nc(OC[C@@H]3CCCN3CCCCNC(=O)CN3CCN4CCN5CCN(CC3)CC(=O)[O][Lu]([O]C(=O)C4)[O]C(=O)C5)nc3c2CCN(c2cccc4cccc(Cl)c24)C3)C[C@@H]1CC#N [Lu-CHL-003, N-[4-[(2S)-2-[[7-(8-chloro-1-naphthyl)-4-[(3S)-3-(cyanomethyl)-4-prop-2-enoyl-piperazin-1-yl]-6,8-dihydro-5Hpyrido[3,4-d]pyrimidin-2-yl]oxymethyl]pyrrolidin-1-yl]butyl]-2-(3,16,19-trioxo-2,17,18-trioxa-5,8,11,14-tetrazaλ3-lutetatricyclo[9.6.3,25,14]docosan-8-yl)acetamide]
[1]
  IC50: < 1000 nM
[2]
  IC50: 1000 to 10000 nM
